In article PMC8909834, “An Orally Bioavailable and Highly Efficacious Inhibitor of CDK9/FLT3 for the Treatment of Acute Myeloid Leukemia” (Cancers, 2022):

Assays:
MOLM-13 cells = test: Western blotting of cellular signaling pathways; format: cell-based; details: MOLM-13, 24 h, concentration-dependent
Description: (§1) Western blotting. Western blotting was performed as described previously. Briefly, cells were lysed after incubation with different concentrations of compounds or control (0.1% DMSO) at the indicated times, samples were denatured at 95 °C for 5 min, and proteins having different molecular weights within each sample were separated by electrophoresis (Bio-Rad, Hercules, CA, USA) on polyacrylamide gels (4–20%, Bio-Rad). Resolved proteins were electrophoretically transferred onto a PVDF membrane and blocked by incubating with 10% w/v non-fat powdered milk dissolved in 1 × Tris-buffered saline-tween 20 (TBST) for 1 h at room temperature prior to incubating overnight with primary antibodies at 4 °C with slight shaking. Chemiluminescence was detected with a ChemiDoc^TM gel imaging system after the membranes have been exposed to ECL substrates (GE Healthcare, PA, USA), and the Image Lab software (Bio-Rad) was used for image capture. The primary antibodies used were: β-Actin (Invitrogen, Cat MA515739, 1:5000), β-Tubulin (Cell Signaling Technology, Cat 2146, 1:1000), AKT (Cell Signaling Technology, Cat 9272, 1:1000), c-MYC (Cell Signaling Technology, Cat 5605, 1:1000), Caspase-3 (Cell Signaling Technology, Cat 9665, 1:1000), Cleaved PARP (Cell Signaling Technology, Cat 5625, 1:1000), ERK1/2 (p44/42 MAPK, Cell Signaling Technology, Cat 4695, 1:1000), GAPDH (Invitrogen, Cat PA1987, 1:1000), MCL-1 (Cell Signaling Technology, Cat 942965, 1:1000), PARP (Cell Signaling Technology, Cat 9532, 1:1000), Phospho-AKT (Ser473) (Cell Signaling Technology, Cat 9271, 1:1000), Phospho-ERK (Thr202/Tyr204) (Cell Signaling Technology, Cat 4370, 1:1000), Phospho-FLT3 (Tyr591) (Cell Signaling Technology, Cat 3461, 1:1000), Phospho-STAT5 (Tyr694) (Cell Signaling Technology, Cat 9359, 1:1000), RNAP II CTD (BioLegend (CA, USA), Cat 664906, 1:1000), RNAP II CTD Phospho-Ser2 (BioLegend, Cat 920204, 1:1000), RNAP II CTD Phospho-Ser5 (Abcam, Cat ab5408, 1:1000), STAT5 (Cell Signaling Technology, Cat 9363, 1:1000), and XIAP (Cell Signaling Technology, Cat 14334, 1:1000). Bands were quantified using ImageJ software (US National Institutes of Health, Bethesda, MD, USA).

MV4-11 cells = test: Western blotting of cellular signaling pathways; format: cell-based
Description: as §1

[1] = MV4-11, time-course, within 2 h

## Cc1cnc(N[C@H]2CC[C@H](N)CC2)nc1-c1cnc2ccc(-c3ccccc3)cn12 [CDDD11-8]
MOLM-13 cells
  phosphorylation of RNAP II CTD at Ser2 and Ser5: suppressed
MV4-11 cells; MV4-11
  level of p-FLT3 Tyr591: reduced
MV4-11 cells; MV4-11, 1 µM, 24 h
  expression of MCL-1: reduced to almost undetectable levels
  expression of XIAP: reduced to almost undetectable levels
MV4-11 cells; MV4-11, 0.3 and 1 µM, as early as 2 h
  expression of c-MYC: completely blocked
MV4-11 cells; [1]
  reduction of p-RNAP II Ser2 level: approximately 20%
  reduction of p-RNAP II Ser5 level: approximately 20%
